# Assay results reported in PMC11009276, “Design, synthesis, biological assessment and molecular modeling studies of novel imidazothiazole-thiazolidinone hybrids as potential anticancer and anti-inflammatory agents” (Scientific Reports, 2024).
# Read-outs that look alike come from different tables or passages of the source.
# How the values were obtained:
# [1] = tested on: HEK293 human embryonic kidney cell line; assay: MTT cytotoxicity assay, normal cell line HEK293; assay type: cell-based; conditions: read-out: IC50 (Mean ± SD) HEK293
# Description: All the synthesized imidazothiazole derivatives linked with thiazolidinone moiety (4a-g and 5a-d, Fig. 4) were evaluated for their in- vitro anticancer activities against three selected human cancer cell lines namely non-small lung (A549), breast (MCF7) and colorectal (HCT116) and one normal human embryonic kidney cell line (HEK293) using the 3‐(4,5‐Dimethylthiazol‐2‐yl)-2,5‐Diphenyltetrazolium Bromide (MTT) assay method. […]. […].
# Cytotoxicity study of the newly synthesized derivatives 4a-g and 5a-d was performed by MTT colorimetric assay method. […] Compounds were tested against selected cancer cell lines namely A549 (Lung), MCF-7(Breast) HCT116 (Colon), normal human embryonic kidney cell line (HEK293) and procured from National Centre for Cell Science Complex (NCCS) Pune University, India. Into a 96 well plate, cells were seeded into each well (3 × 10^3 cells/ per well), the plate were incubated for 24 h, after that the culture medium was discarded and replaced with fresh medium along with our newly synthesized test compounds in different concentration (10, 20, 40 and 80 µM) followed by incubation for 72 h. Further, the media of each well of the plates were aspirated with the addition of 100 µL MTT solution followed by incubation for the next 5 h at 37 °C. Finally, each well is treated with DMSO (100 µL) and swirled to dissolve the dark crystals of formazan. ELISA reader was used to measure the absorbance at 570 nm. The experiment was repeated three times; Graph pad prism and excel are used to calculate the IC50 values.
# [2] = target: Bovine serum albumin (BSA) (Bos taurus, UniProt P02769); assay: BSA (protein albumin) denaturation inhibition assay; conditions: for BSA denaturation inhibition assay Mean absorbance ± SEM: 660 nm; for inhibition at 100 µg/mL: read-out: BSA denaturation inhibition assay % inhibition of denaturation, 100 μg/mL
# Sequence of Bovine serum albumin (BSA) (P02769 25-607): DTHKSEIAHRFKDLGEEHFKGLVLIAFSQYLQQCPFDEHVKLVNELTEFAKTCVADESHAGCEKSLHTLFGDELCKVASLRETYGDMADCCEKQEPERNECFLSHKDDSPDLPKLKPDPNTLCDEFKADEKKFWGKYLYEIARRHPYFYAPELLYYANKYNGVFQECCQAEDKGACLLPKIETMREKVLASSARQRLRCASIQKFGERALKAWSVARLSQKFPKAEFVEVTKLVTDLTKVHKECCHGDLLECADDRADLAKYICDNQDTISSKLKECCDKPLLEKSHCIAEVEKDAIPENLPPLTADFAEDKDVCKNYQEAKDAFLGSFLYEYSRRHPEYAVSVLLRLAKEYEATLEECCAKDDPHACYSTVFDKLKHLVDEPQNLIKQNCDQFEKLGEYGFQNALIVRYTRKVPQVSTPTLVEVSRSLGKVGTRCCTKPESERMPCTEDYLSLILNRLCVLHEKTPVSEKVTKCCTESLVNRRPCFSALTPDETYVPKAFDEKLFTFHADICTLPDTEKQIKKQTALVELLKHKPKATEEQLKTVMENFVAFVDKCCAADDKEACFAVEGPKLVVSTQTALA
# Description: All the synthesized compounds were evaluated for anti-inflammatory activity by the inhibition of the albumin denaturation technique. […] All the test solutions (1 mL, 100 μg/mL) were then mixed with 1 mL of albumin solution (1%) and phosphate buffer saline and then incubated for around 15 min at 27 ± 1 °C. Further, the denaturation of protein was induced by keeping the reaction mixture on the water bath for 10 min and maintaining the temperature at 60 °C. Once the solution gets cooled, the turbidity was measured using UV–Visible spectrophotometer at 660 nm.
# [3] = tested on: A549 (Lung) cancer cell line; assay: MTT cytotoxicity assay, A549; conditions: Homo sapiens, A549, 72 h, read-out: IC50 (µM) (Mean ± SD) A549
# Description: (§1) All the synthesized imidazothiazole derivatives linked with thiazolidinone moiety (4a-g and 5a-d, Fig. 4) were evaluated for their in- vitro anticancer activities against three selected human cancer cell lines namely non-small lung (A549), breast (MCF7) and colorectal (HCT116) and one normal human embryonic kidney cell line (HEK293) using the 3‐(4,5‐Dimethylthiazol‐2‐yl)-2,5‐Diphenyltetrazolium Bromide (MTT) assay method. […] Compounds were tested against selected cancer cell lines namely A549 (Lung), MCF-7(Breast) HCT116 (Colon), normal human embryonic kidney cell line (HEK293) and procured from National Centre for Cell Science Complex (NCCS) Pune University, India. Into a 96 well plate, cells were seeded into each well (3 × 10^3 cells/ per well), the plate were incubated for 24 h, after that the culture medium was discarded and replaced with fresh medium along with our newly synthesized test compounds in different concentration (10, 20, 40 and 80 µM) followed by incubation for 72 h. […] Finally, each well is treated with DMSO (100 µL) and swirled to dissolve the dark crystals of formazan. ELISA reader was used to measure the absorbance at 570 nm. The experiment was repeated three times; Graph pad prism and excel are used to calculate the IC50 values[51].
# [4] = tested on: MCF7 human breast cancer cell line; assay: MTT cytotoxicity assay, MCF7; conditions: MCF7, 72 h, read-out: IC50 (µM) (Mean ± SD) MCF7
# Description: as §1
# [5] = tested on: HCT116 human colorectal cancer cell line; assay: MTT cytotoxicity assay, HCT116; conditions: HCT-116, 72 h, read-out: IC50 (µM) (Mean ± SD) HCT116
# Description: as §1
# [6] = target: EGFR kinase (Homo sapiens, UniProt P00533); assay: In vitro EGFR kinase inhibitory assay (ELISA, phospho-EGFR in A549 cell lysates)
# Sequence of EGFR kinase (P00533 25-1210): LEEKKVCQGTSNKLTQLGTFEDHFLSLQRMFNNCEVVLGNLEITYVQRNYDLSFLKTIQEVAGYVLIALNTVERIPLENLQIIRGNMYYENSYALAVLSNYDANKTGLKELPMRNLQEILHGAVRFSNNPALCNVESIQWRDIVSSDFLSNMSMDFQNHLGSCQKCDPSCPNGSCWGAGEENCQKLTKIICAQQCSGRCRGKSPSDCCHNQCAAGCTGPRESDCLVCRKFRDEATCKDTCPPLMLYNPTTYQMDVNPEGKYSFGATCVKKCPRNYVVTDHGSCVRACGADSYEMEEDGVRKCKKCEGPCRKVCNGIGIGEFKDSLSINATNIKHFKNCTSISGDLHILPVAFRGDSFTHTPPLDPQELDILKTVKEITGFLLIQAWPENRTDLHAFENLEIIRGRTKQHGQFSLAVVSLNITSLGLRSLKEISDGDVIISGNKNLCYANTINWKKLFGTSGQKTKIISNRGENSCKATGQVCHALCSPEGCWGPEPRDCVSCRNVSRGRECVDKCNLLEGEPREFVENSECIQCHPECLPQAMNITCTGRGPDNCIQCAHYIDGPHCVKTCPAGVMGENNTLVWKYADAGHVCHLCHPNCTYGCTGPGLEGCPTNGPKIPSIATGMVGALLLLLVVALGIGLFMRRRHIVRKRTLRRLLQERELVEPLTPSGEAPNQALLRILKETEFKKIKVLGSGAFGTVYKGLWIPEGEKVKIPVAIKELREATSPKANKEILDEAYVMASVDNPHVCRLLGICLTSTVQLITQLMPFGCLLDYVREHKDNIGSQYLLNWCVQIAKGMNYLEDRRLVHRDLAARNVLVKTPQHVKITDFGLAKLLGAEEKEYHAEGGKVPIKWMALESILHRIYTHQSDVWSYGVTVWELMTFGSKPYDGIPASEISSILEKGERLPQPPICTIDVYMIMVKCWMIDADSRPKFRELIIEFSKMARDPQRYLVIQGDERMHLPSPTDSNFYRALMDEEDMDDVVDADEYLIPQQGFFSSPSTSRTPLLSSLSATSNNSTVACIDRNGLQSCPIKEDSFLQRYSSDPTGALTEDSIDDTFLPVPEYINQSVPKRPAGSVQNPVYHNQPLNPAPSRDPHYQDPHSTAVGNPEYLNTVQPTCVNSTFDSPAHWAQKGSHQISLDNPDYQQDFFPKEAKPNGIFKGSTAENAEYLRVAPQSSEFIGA
# Description: For all the synthesized compounds, the overall methodology of a spectrophotometric assay for the inhibition of EGFR tyrosine kinase activity was evaluated in human A549 cells, which expressed high levels of EGFR protein. […] Cells were then washed with cold PBS, lysed in 0.2 ml/well of HNTG buffer (50 mM HEPES [(4‐(2‐hydroxyethyl)‐piperazineethanesulfonic acid; pH 7.5], 150 mM NaCl, 1.5 mM MgCl, 10% glycerol, 1% Triton X‐100, 0.5 mM sodium fluoride, 2 g/ml aprotinin, 2 g/ml pepstatin A, 1 mM sodium orthovanadate, 2 g/ml leupeptin, 1 mM phenyl methyl sulfonyl fluoride) for 10 min, and the lysates were collected as the supernatant fraction after a 12‐min centrifugation at 15,000 g. The specific EGFR concentration was measured by ELISA assay. Briefly, the wells of ELISA plates were coated with supernatant fraction and incubated at 4 °C overnight After washing three times with buffer (20 mM PBS, pH 7.2 containing 0.05% Tween‐20), the wells were blocked with 1% BSA for 2–3 h at room temperature. Further, the plate was washed and then mouse serum at 1,000‐fold dilution was added, followed by washing and incubation with phospho‐EGFR antibody (Invitrogen) at 4 °C overnight. The wells were washed and incubated with substrate solution (o‐phenylenediamine dihydrochloride), for 30 min, and the absorbance read on an ELISA plate reader at 490 nm[52]. %Inhibition=mean OD of untreated group-mean OD of treated group/mean OD of untreated group)×100.
# [7] = tested on: carrageenan-induced rat hind paw edema; assay: Carrageenan-induced rat paw edema inhibition assay; assay type: in vivo; conditions: after 4 h; for % inhibition (paw edema) / Increase in Paw volume SEM: oral 0.0314 mmol/kg; for Activity relative to standard drug: relative to diclofenac sodium; for Increase in Paw volume SEM: n = 6
# Description: The anti-inflammatory efficacy of the newly synthesised compounds was assessed using a carrageenan-induced rat hind paw edema technique The animals were divided into groups of six at random, fasted for 24 h before to the experiment, and given free access to water. 0.5% CMC solution was given to the control group only. […] One hour after the administration of the test compounds and the reference drug, 0.1 mL of a 1% carrageenan solution in saline was subcutaneously injected into the subplantar area of the right hind paw of each rat. The right hind paw volume was measured using a Digital Plethysmometer PLM-01 Plus (Orchid Scientifics and Innovatives India Pvt. Ltd., Mumbai, India) at 3 and 4 h after carrageenan therapy. The following calculation was used to compute the percent edema inhibition from the mean effect in the treated and control animals: Percent edema inhibition=Vc-Vt/Vc×100 where Vc denotes the mean increase in paw volume in the control group of rats and Vt denotes the mean increase in paw volume in rats treated with test chemicals. After a 15-day washout period, the same group of rats utilised for the anti-inflammatory activity were employed for the ulcerogenic activity.
# [8] = tested on: gastric mucosa of rats; assay: Ulcerogenic activity; assay type: in vivo, rat; conditions: oral 0.0942 mmol/kg
# Description: The Compounds (4a-d, 5a-b) which were found potent as anti-inflammatory agents were further screened for their ulcerogenic risk. The compounds and the standard drug were tested at an oral dose of 0.0942 mmol/kg.
# Animals were divided into different groups consisting of 6 rats per group. […] The control group received 0.5% of the carboxymethylcellulose (CMC) solution. […] 24 h before the test compounds were administered. After receiving the medication, the rats were given regular food for 17 h and then sacrificed. The stomach was taken out and opened along its greater curvature before being gently cleansed by dipping it in normal saline and then washing it with distilled water. The mucosal injury/damage was examined thoroughly using a magnifying glass. The mucosal injury in each stomach was scored using the following score system: 0.5: Redness; 1.0: Spot Ulcers; 1.5: Hemorrhagic Streaks; 2.0: Ulcers > 3 but 5, 3.0: Ulcers > 5. The severity index (SI) of stomach mucosal injury was calculated as the mean score of each treated group minus the mean score of the control group.
# [9] = tested on: gastric mucosa tissue of rats; assay: Lipid peroxidation in gastric mucosa; assay type: in vivo, rat; conditions: oral 0.0942 mmol/kg
# Description: The compounds screened for ulcerogenic potential were also analysed for lipid peroxidation. Lipid peroxidation is measured as nmolMDA/100 mg of gastric mucosa tissue. […] Thus, it was concluded that protection of gastric mucosa might be related to the inhibition of lipid peroxidation.
# Lipid peroxidation in the gastric mucosa was determined using the reported method by Ohkawa H. et al.[61]. The gastric mucosa of the glandular area was scraped off using glass slides after the stomach had been examined for ulcers. Gastric mucosa was weighed (100 mg) and homogenised in 1.8 cm^3 of ice-cold solution of KCl (1.15%). The homogenate is further added with 0.2 cm^3 of 8.1% sodium dodecyl sulphate (SDS), 1.5 cm^3 of acetate buffer, and 1.5 cm^3 of 0.8% thiobarbituric acid. After adding all buffers, the mixture was kept for incubation for 60 min over water bath, maintaining the temperature of the water bath at 95 °C. Later, the mixture was allowed to cool and then extracted with a freshly prepared mixture of n-butanol and pyridine (15:1 v/v), the organic layer obtained was centrifuged at 3000 rpm for about 10 min. The organic layer was separated out and visualised on UV–visible spectrophotometer. Concentration was measured using the following formula: Concentration=Absorbance×volume×109÷1.56×10^5×1000
# Results obtained were expressed as nmol MDA/100 mg tissue and extinction coefficient (1.56 × 10^5) cm^-1 M^-1.
# [10] = tested on: carrageenan-induced paw edema inflammation; parameters: method as in earlier work; conditions: albino rats; ref 50 (Saliyeva et al.); cited from earlier work
# [11] = HEK293, MTT, 72 h, normal cell line
BSA denaturation inhibition assay Mean absorbance ± SEM ([2]; 100 μg/mL),inhibition at 100 µg/mL [2] [%],melting point [°C],IC50 [6] [µM],Lipid peroxidation [9] [Nmol MDA/100 mg tissue],BSA denaturation inhibition assay % inhibition of denaturation ([2]; 100 μg/mL) [%],SMILES,"IC50 [1, 11] [µM]",IC50 [3] [µM],IC50 [4] [µM],IC50 [5] [µM],"IC50 ([1]; HEK293, 72 h) [µM]",% inhibition (paw edema) [7] [%],Activity relative to standard drug [7],Mean ulcer severity index ± SEM [8],Increase in Paw volume SEM [7],% inhibition carrageenan-induced paw edema [10] [%]
0.289 ± 0.012,61.1,187 to 189,57.1 ± 0.38,–,–,"CC1SC(c2c(-c3ccccc3)nc3sccn23)N(c2ccc([N+](=O)[O-])cc2)C1=O (stereo not shown) [Compound 4e, 5-Methyl-3-(4-nitrophenyl)-2-(6-phenylimidazo[2,1-b]thiazol-5-yl) thiazolidin-4-one]",125 ± 5.8,50.6 ± 0.7,43.6 ± 7.19,89.9 ± 4.89,–,–,–,–,–,–
–,–,–,–,–,–,"C#Cc1cccc(Nc2ncnc3cc(OCCOC)c(OCCOC)cc23)c1 [Erlotinib, reference compound]",–,8.34 ± 8.09,10.7 ± 5.65,12.5 ± 1.87,80.2 ± 1.3,–,–,–,–,–
0.288 ± 0.002,60.6,155 to 157,49.7 ± 4.89,–,–,Cc1ccc(N2C(=O)C(C)SC2c2c(-c3ccccc3)nc3sccn23)cc1 (stereo not shown) [Compound 4f],147 ± 4.57,40.22 ± 0.38,33.7 ± 0.84,47.6 ± 8.97,–,–,–,–,–,–
0.287 ± 0.004,59.9,160 to 162,48 ± 1.97,–,–,"COc1ccc(N2C(=O)CSC2c2c(-c3ccccc3)nc3sccn23)cc1 (stereo not shown) [Compound 5d, 3-(4-Methoxyphenyl)-2-(6-phenylimidazo[2,1-b]thiazol-5-yl) thiazolidin-4-one]",111.8 ± 0.25,33.1,38.1 ± 0.89,65.2 ± 0.9,–,–,–,–,–,–
0.326 ± 0.002,82,151 to 153,36 ± 1.89,6.16 ± 0.135,–,"CC1SC(c2c(-c3ccccc3)nc3sccn23)N(c2ccc(Cl)cc2Cl)C1=O (stereo not shown) [Compound 4d, 3-(2,4-Dichlorophenyl)-5-methyl-2-(6-phenylimidazo[2,1-b]thiazol-5-yl)thiazolidin-4-one]",181 ± 5.74,31.8 ± 1.1,35.8 ± 1.03,49.5 ± 7.14,–,67.78,84.39,1.250 ± 0.281,–,–
0.317 ± 0.003,76.6,159 to 161,33.1 ± 1.58,5.68 ± 0.071,–,"O=C1CSC(c2c(-c3ccccc3)nc3sccn23)N1c1ccc(Br)cc1 (stereo not shown) [Compound 5b, 3-(4-Bromophenyl)-2-(6-phenylimidazo[2,1-b]thiazol-5-yl) thiazolidin-4-one]",105 ± 3.5,35.5 ± 2.15,44.2 ± 0.85,58.6 ± 4.51,–,74.78,93.10,1.000 ± 0.258,0.133 ± 0.008,–
0.291 ± 0.011,62.1,162 to 164,46.5 ± 7.14,–,–,"COc1ccc(N2C(=O)C(C)SC2c2c(-c3ccccc3)nc3sccn23)cc1 (stereo not shown) [Compound 4g, 3-(4-Methoxyphenyl)-5-methyl-2-(6-phenylimidazo[2,1-b]thiazol-5-yl) thiazolidin-4-one]",164 ± 4.69,70.1 ± 2.02,52.9 ± 1.65,76.3 ± 5.66,–,–,–,–,–,–
0.323 ± 0.002,79.9,177 to 179,30.1 ± 4.17,5.75 ± 0.102,–,"O=C1CSC(c2c(-c3ccccc3)nc3sccn23)N1c1ccc(Cl)cc1 (stereo not shown) [Compound 5a, 3-(4-Chlorophenyl)-2-(6-phenylimidazo[2,1-b]thiazol-5-yl) thiazolidin-4-one]",117 ± 5.69,42.7 ± 3.35,35.1 ± 1.25,58.8 ± 3.14,–,76.24,94.92,1.083 ± 0.238,0.163 ± 0.018,–
–,–,–,–,–,–,"O=C(O)Cc1ccccc1Nc1c(Cl)cccc1Cl [Diclofenac sodium, reference compound]",–,–,–,–,–,80.32,–,–,–,38.8
0.314 ± 0.003,79.9,153 to 155,29.3 ± 4.61,–,65.28,Cc1ccc(N2C(=O)CSC2c2c(-c3ccccc3)nc3sccn23)cc1 (stereo not shown) [Compound 5c],109 ± 5.32,34.2 ± 2.82,35.8 ± 4.61,60 ± 6.44,–,–,–,–,–,–
